Columns and labels:
Assay type in all cases: cell-based, human
HT-29 cells [1] = test: Cellular SAMe and MTA levels in HT-29 cells; details: mitogen 100 ng/ml
Method: (§1) HT-29 and RKO cells were obtained from the Cell Culture Core of the USC Liver Disease Research Center and grown according to instructions provided by the American Type Culture Collection (ATCC, Rockville, Md.). Prior to treatment with growth factors, SAMe or MTA, medium was changed to 0.1% FBS overnight.
(§2) Cellular SAMe and MTA levels were measured (51) and polyamine levels were determined (52).

HT-29 cells [2] = test: Polyamine levels in HT-29 cells; details: 6 hrs, mitogen 100 ng/ml
Method: as §1, §2

MAT2A [3] = test: MAT2A mRNA levels by real-time PCR in HT-29 cells; details: for MAT2A mRNA levels after growth factor: growth factor 100 ng/ml
Method: as §1
RNA interference (RNAi) experiments were performed using Lipofectamine RNAiMax (Invitrogen) according to the manufacturer's instructions. Small interfering RNA (siRNA) oligonucleotides for MAT2A and scrambled siRNA were synthesized by the USC Norris Comprehensive Cancer Center Microchemical Core Laboratory, and annealed to form duplexes. Stealth RNAi for MAT2A and Stealth RNAi negative control duplexes were synthesized by Invitrogen (Carlsbad, Calif.). The following siRNA sequences were used: si-MAT2A #1, 5′-[…]-3′ (sense) and 5′-[…]-3′ (antisense); si-control with scrambled sequence (negative control siRNA having no perfect matches to known human genes), 5′-[…]dTdT-3′ (sense) and 5% […]dTdT-3′ (antisense); stealth RNAi-MAT2A #5, 5′-[…]-3′ (sense) and 5′-[…]-3′ (antisense). […]
(§3) Total RNA was isolated by the EZgeno total RNA isolation kit (Genemega, San Giego, Calif.), and subjected to reverse transcription (RT) by using M-MLV Reverse transcriptase (Invitrogen). 2 μl of RT product was subjected to quantitative real-time PCR analysis. The primers and TaqMan probes for MAT2A, MAT2β and Universal PCR Master Mix were purchased from ABI (Foster City, Calif.). Hypoxanthine phosphoribosyl-transferase 1 (HPRT1) and ubiquitin C (UBC) were used as housekeeping genes (48). The thermal profile consisted of 1 cycle at 95° C. for 15 minutes followed by 40 cycles at 95° C. for 15 seconds and at 60° C. for 1 minute. The expression of MAT2A and MAT2β was checked by normalizing the Ct of MAT2A and MAT2β to that of the control housekeeping gene (HPRT1 or UBC) (49). The delta Ct obtained was used to find the relative expression of MAT genes according to the formula: Relative expression=2·^ΔCt, where ΔCt=ΔCt of MAT genes in colon cancer or treated cells—ΔCt of MAT genes in normal colon or control cells.

[4] = system: spermine synthase (SPM syn); test: SPM syn expression by real-time PCR in HT-29 cells; details: 6 hrs, mitogen 100 ng/ml
[5] = system: ornithine decarboxylase (ODC); test: ODC expression by real-time PCR in HT-29 cells; details: 6 hrs, mitogen 100 ng/ml
SPD syn = SPD syn expression by real-time PCR in HT-29 cells; details: 6 hrs, mitogen 100 ng/ml
MAT2A [6] = test: MAT2A mRNA levels by real-time PCR in RKO cells; details: for MAT2A mRNA levels after growth factor / MAT2A expression: RKO cells; for MAT2A mRNA levels after growth factor: growth factor 100 ng/ml
Method: as §1
RNA interference (RNAi) experiments were performed using Lipofectamine RNAiMax (Invitrogen) according to the manufacturer's instructions. Small interfering RNA (siRNA) oligonucleotides for MAT2A and scrambled siRNA were synthesized by the USC Norris Comprehensive Cancer Center Microchemical Core Laboratory, and annealed to form duplexes. Stealth RNAi for MAT2A and Stealth RNAi negative control duplexes were synthesized by Invitrogen (Carlsbad, Calif.). The following siRNA sequences were used: si-MAT2A #1, 5′-[…]-3′ (sense) and 5′-[…]-3′ (antisense); si-control with scrambled sequence (negative control siRNA having no perfect matches to known human genes), 5′-[…]dTdT-3′ (sense) and 5% […]dTdT-3′ (antisense); stealth RNAi-MAT2A #5, 5′-[…]-3′ (sense) and 5′-[…]-3′ (antisense). Transfection was allowed to proceed 72 hours before collection for different assays.
as §3

RKO cells = test: Apoptosis in RKO cells (HOECHST staining, Annexin V)
Method: Apoptosis was assessed by HOECHST staining (34). Briefly, RKO cells were grown on coverslips and treated with RNAi#1 for 24 hrs and cells were fixed with paraformaldehyde and stained with 8 μg/ml HOECHST 33258 dye for 30 min. Cells with bright, fragmented, condensed nuclei were identified as apoptotic cells using the Nikon Eclipse TE300 fluorescent microscope. At least 5 random fields (at ×300) were counted.
In these experiments the total treatment duration was limited to 16 hrs to avoid the apoptotic effect. […] Apoptosis was measured by Hoechst staining or Annexin V and propidium iodide staining on flow cytometry.

HT-29 cells [7] = test: Cell growth by MTT assay in HT-29 cells
Method: Cell growth was measured by the cell growth determination kit MTT from Sigma (St. Louis, Mo.). The MTT assay measures the cell proliferation rate and reduction in cell viability. HT-29 or RKO cells (1×10^4/well) were plated in 96-well plates and treated with growth factors (all 100 ng/ml), SAMe (0.5 to 5 mM), MTA (0.5 to 1 mM), alone or in combination for 16 hrs in serum-free medium. To determine the effect of MAT2A RNAi on mitogen-induced changes in MTT, cells were first treated with RNAi for 48 hrs followed by mitogen treatment for another 24 hrs.

EGF: Epidermal growth factor, mitogen
MTA level (HT-29 cells [1]; 6 hrs): 0.054 ± 0.001 nmol/mg protein | SAMe level (HT-29 cells [1]; 6 hrs): 0.54 ± 0.04 nmol/mg protein | MTA level (HT-29 cells [1]; 16 hrs): 0.061 ± 0.010 nmol/mg protein | SAMe level (HT-29 cells [1]; 16 hrs): 0.63 ± 0.06 nmol/mg protein | Putrescine (HT-29 cells [2]): 0.32 ± 0.01 nmol/mg protein | Spermidine (HT-29 cells [2]): 2.19 ± 0.23 nmol/mg protein | Spermine (HT-29 cells [2]): 12.55 ± 2.04 nmol/mg protein | MAT2A mRNA levels after growth factor (MAT2A [3]; HT-29 cells): doubled | SPM syn expression [4]: 1.1 ± 0.02 fold of control | ODC expression [5]: 1.5 ± 0.07 fold of control | SPD syn expression (SPD syn): 1.7 ± 0.08 fold of control | MAT2A mRNA levels after growth factor (MAT2A [6]): doubled

IGF-1: insulin-like growth factor-1, mitogen
MTA level (HT-29 cells [1]; 6 hrs): 0.054 ± 0.003 nmol/mg protein | MTA level (HT-29 cells [1]; 16 hrs): 0.087 ± 0.025 nmol/mg protein | SAMe level (HT-29 cells [1]; 16 hrs): 1.03 ± 0.03 nmol/mg protein | Putrescine (HT-29 cells [2]): 0.22 ± 0.02 nmol/mg protein | Spermidine (HT-29 cells [2]): 2.82 ± 0.09 nmol/mg protein | Spermine (HT-29 cells [2]): 12.55 ± 2.50 nmol/mg protein | MAT2A mRNA levels after growth factor (MAT2A [3]; HT-29 cells): doubled | SPM syn expression [4]: 1.1 ± 0.03 fold of control | ODC expression [5]: 1.5 ± 0.08 fold of control | SPD syn expression (SPD syn): 2.2 ± 0.20 fold of control | MAT2A mRNA levels after growth factor (MAT2A [6]): doubled

RNAi#1: siRNA against MAT2A, sense 5′-ACACAUUGGAUAUGAUGAUTT-3′ (antisense AUCAUCAUAUCCAAUGUGUTT; chemistry not given here) [reference compound]
apoptosis (RKO cells; 24 hrs of RNAi treatment): significant increase in apoptosis | apoptosis (RKO cells; 48 hrs of RNAi treatment): more pronounced | lowering of MAT2A expression (MAT2A [6]): 90% | MAT2A expression (MAT2A [6]; 24 hrs): 25 % of scrambled control | MAT2A expression (MAT2A [6]; 48 hrs): 9 % of scrambled control

RNAi#5: stealth RNAi against MAT2A, sense 5′-CCACCUACAGCCAAGUGGCAGAUUU-3′ (antisense AAAUCUGCCACUUGGCUGUAGGUGG; chemistry not given here) [reference compound]
lowering of MTT value (HT-29 cells [7]; HT-29 or RKO cells, RNAi 48 hrs then another 24 hrs): about 30% | mitogenic effect of leptin, IGF-1 and EGF (HT-29 cells [7]; RNAi 48 hrs, then growth factors 24 hrs): blocked the ability of leptin, IGF-1 and EGF to fully exert their mitogenic effect | MAT2A mRNA level (MAT2A [3]; HT-29 cells, RNAi 48 hrs): 50 % of control | lowering of MAT2A expression (MAT2A [3]; at 72 hrs): 50% | apoptosis (RKO cells; after 24 hrs): No apoptosis was detected

From patent publication US20100166727A1, “S-Adenosylmethionine And Methylthioadensosine In Chemoprevention And Treatment Of Colon Polyps And Cancer” (UNIVERSITY OF SOUTHERN CALIFORNIA, priority 2007, published 2010)
